Assay results from ChEMBL document CHEMBL2417535, “Synthesis and structure-activity relationships evaluation of benzothiazinone derivatives as potential anti-tubercular agents” (Bioorg Med Chem Lett, 2013).
pIC50: −log10 of the molar value. Converted amounts (≈) assume the structure as drawn.

Key:
[1] = Selectivity index, ratio of IC50 for african green monkey Vero cells to MIC for Mycobacterium tuberculosis H37Ra ATCC 25177; format: functional
Vero = assay: Cytotoxicity against african green monkey Vero cells after 72 hrs by MTT assay; format: cell-based; conditions: Chlorocebus sabaeus
[2] = system: Mycobacterium tuberculosis; assay: Antitubercular activity against Mycobacterium tuberculosis H37Ra ATCC 25177 by microplate alamar blue assay; format: functional
[3] = system: Mycobacterium tuberculosis; assay: Ratio of isoniazid MIC to compound MIC for Mycobacterium tuberculosis H37Rv ATCC 27294; format: functional
[4] = Selectivity index, ratio of IC50 for african green monkey Vero cells to MIC for Mycobacterium tuberculosis H37Rv ATCC 27294; format: functional
[5] = system: Mycobacterium tuberculosis; assay: Antitubercular activity against Mycobacterium tuberculosis H37Rv ATCC 27294 by microdilution plate assay; format: functional
[6] = Oral bioavailability in Sprague-Dawley rat at 20 mg/kg; format: ADME, organism-based; conditions: in vivo
[7] = AUC (0 to infinity) in Sprague-Dawley rat at 20 mg/kg, po; format: ADME, organism-based; parameters: dose 20 mg/kg, route oral, time infinity; conditions: plasma
[8] = Elimination half life in Sprague-Dawley rat at 20 mg/kg, po; format: ADME, organism-based; parameters: dose 20 mg/kg, route oral; conditions: in vivo, read-out: beta t1/2 (converted)
[9] = Tmax in Sprague-Dawley rat at 20 mg/kg, po; format: ADME, organism-based; parameters: dose 20 mg/kg, route oral; conditions: in vivo
[10] = Cmax in Sprague-Dawley rat at 20 mg/kg, po; format: ADME, organism-based; parameters: dose 20 mg/kg, route oral; conditions: in vivo
[11] = AUC (0 to infinity) in Sprague-Dawley rat at 10 mg/kg, iv; format: ADME, organism-based; parameters: time infinity, dose 10 mg/kg, route intravenous; conditions: plasma
[12] = Elimination half life in Sprague-Dawley rat at 10 mg/kg, iv; format: ADME, organism-based; parameters: dose 10 mg/kg, route intravenous; conditions: in vivo, read-out: beta t1/2 (converted)
[13] = Cmax in Sprague-Dawley rat at 10 mg/kg, iv; format: ADME, organism-based; parameters: dose 10 mg/kg, route intravenous; conditions: in vivo
[14] = Lipophilicity, log P of the compound by shake flask method; format: physicochemical; conditions: octanol/water
Mycobacterium avium = assay: Antitubercular activity against Mycobacterium avium ATCC 25291 by microdilution plate assay; format: functional, Mycobacterium avium subsp. avium ATCC 25291
[15] = system: Mycolicibacterium smegmatis; assay: Antitubercular activity against Mycobacterium smegmatis MC2 155 by microplate alamar blue assay; format: functional; conditions: str. MC2 155
Mus musculus = assay: Acute toxicity in BALB/c mouse assessed as mortality at 2 g/kg, po; format: organism-based; conditions: in vivo, 2000 mg/kg

Compound	Selectivity Index [1]	pIC50 (Vero)	MIC [2]	Selectivity Index [4]	MIC [5]	also measured
CCN(CC)c1nc(=O)c2cc(C(F)(F)F)cc([N+](=O)[O-])c2s1	>125	< 4.00	0.8 µM (≈ 278 ng/mL)			
O=c1nc(N2CCOCC2)sc2c([N+](=O)[O-])cc(C(F)(F)F)cc12	>32	< 4.00	3.1 µM (≈ 1120 ng/mL)			
O=C(O)C1CCN(c2nc(=O)c3cc(C(F)(F)F)cc([N+](=O)[O-])c3s2)CC1	>32	< 4.00	3.1 µM (≈ 1250 ng/mL)			
O=c1nc(NC2CC2)sc2c([N+](=O)[O-])cc(C(F)(F)F)cc12	>250	< 4.00	0.4 µM (≈ 133 ng/mL)			
CC(C)(C)OC(=O)N1CCN(c2nc(=O)c3cc(C(F)(F)F)cc([N+](=O)[O-])c3s2)CC1		< 4.00	0.02 µM (≈ 9.21 ng/mL)	>3000	0.03 µM (≈ 13.8 ng/mL)	Ratio [3]: 6.7
O=c1nc(N2CCC3(CC2)OCCS3)sc2c([N+](=O)[O-])cc(C(F)(F)F)cc12		< 4.00	0.002 µM (≈ 0.867 ng/mL)	>50000	0.002 µM (≈ 0.867 ng/mL)	
CC(C)(C)Nc1nc(=O)c2cc([N+](=O)[O-])cc([N+](=O)[O-])c2s1			0.4 µM (≈ 130 ng/mL)			
CCCCNc1nc(=O)c2cc([N+](=O)[O-])cc([N+](=O)[O-])c2s1			0.8 µM (≈ 259 ng/mL)			
CCCNc1nc(=O)c2cc([N+](=O)[O-])cc([N+](=O)[O-])c2s1			3.1 µM (≈ 962 ng/mL)			
CCCCNc1nc(=O)c2cc(C(F)(F)F)cc([N+](=O)[O-])c2s1	>125	< 4.00	0.8 µM (≈ 278 ng/mL)			
O=c1nc(N2CCCCC2)sc2c([N+](=O)[O-])cc(C(F)(F)F)cc12		< 4.00	0.8 µM (≈ 287 ng/mL)	>142	0.7 µM (≈ 252 ng/mL)	
O=c1nc(N2CCC3(CC2)SCCS3)sc2c([N+](=O)[O-])cc(C(F)(F)F)cc12		< 4.00	0.001 µM (≈ 0.45 ng/mL)	>1000000	0.0001 µM (≈ 0.045 ng/mL)	bioavailability [6]: 26%; AUC(0-inf) [7]: 780 ng·h/mL; half-life [8]: 5.4 h; Tmax [9]: 0.5 h; Cmax [10]: 560 ng/mL; AUC(0-inf) [11]: 1480 ng·h/mL; half-life [12]: 2.5 h; Cmax [13]: 1720 ng/mL; logP [14]: 3.94; MIC (Mycobacterium avium): 36 µM (≈ 16200 ng/mL); MIC [15]: 0.0063 µM (≈ 2.83 ng/mL); Activity (Mus musculus): Non-toxic; Ratio [3]: 2000
O=c1nc(N2CCCC2)sc2c([N+](=O)[O-])cc(C(F)(F)F)cc12	>125	< 4.00	0.8 µM (≈ 276 ng/mL)			
CC1COC2(CCN(c3nc(=O)c4cc(C(F)(F)F)cc([N+](=O)[O-])c4s3)CC2)O1 (racemic)		< 4.00	0.004 µM (≈ 1.73 ng/mL)	>50000	0.002 µM (≈ 0.863 ng/mL)	logP [14]: 2.69; MIC (Mycobacterium avium): 74 µM (≈ 31900 ng/mL); MIC [15]: 0.013 µM (≈ 5.61 ng/mL)
CC1CCN(c2nc(=O)c3cc(C(F)(F)F)cc([N+](=O)[O-])c3s2)CC1		< 4.00	0.1 µM (≈ 37.3 ng/mL)	>1250	0.08 µM (≈ 29.9 ng/mL)	Ratio [3]: 2.5
CC1CCN(c2nc(=O)c3cc([N+](=O)[O-])cc([N+](=O)[O-])c3s2)CC1			0.2 µM (≈ 70.1 ng/mL)			
O=c1nc(NC2CCCC2)sc2c([N+](=O)[O-])cc(C(F)(F)F)cc12	>125	< 4.00	0.8 µM (≈ 287 ng/mL)			
CCNc1nc(=O)c2cc(C(F)(F)F)cc([N+](=O)[O-])c2s1	>16	< 4.00	6.3 µM (≈ 2010 ng/mL)			
CCCNc1nc(=O)c2cc(C(F)(F)F)cc([N+](=O)[O-])c2s1	>62	< 4.00	1.6 µM (≈ 533 ng/mL)			
CC(C)(C)OC(=O)N1CCN(c2nc(=O)c3cc([N+](=O)[O-])cc([N+](=O)[O-])c3s2)CC1			0.4 µM (≈ 175 ng/mL)			
CC(C)CNc1nc(=O)c2cc(C(F)(F)F)cc([N+](=O)[O-])c2s1	>125	< 4.00	0.8 µM (≈ 278 ng/mL)			
CC(C)CNc1nc(=O)c2cc([N+](=O)[O-])cc([N+](=O)[O-])c2s1			1.6 µM (≈ 519 ng/mL)			
NNC(=O)c1ccncc1 [ISONIAZID]		< 4.00	0.8 µM (≈ 110 ng/mL)	>500	0.2 µM (≈ 27.4 ng/mL)	
